According to the METLIN SMRT retention time set (Domingo-Almenara et al. 2019):

Experiment: gradient 5% acetonitrile 3 min, to 50% in 2 min, to 85% in 15 min, held 3 min, 100 µL/min
Settings: column: Zorbax Extend-C18 2.1 x 50 mm; eluents: water / acetonitrile, 0.1% formic acid
Method in brief: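 The mobile phases were water and acetonitrile, each with 0.1% formic acid, pumped at 100 μL/min through a Zorbax Extend-C18 column (2.1 × 50 mm, 1.8 μm). Pure standards were injected as mixtures of ~100 molecules and detected by a quadrupole time-of-flight mass spectrometer in positive and negative ionization mode. Retention time came from computationally picked adduct peaks, each inspected by hand.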

SMILES	RP-LC retention time [s]
CCN(Cc1ccccc1)C(=O)[C@H]1[C@@H](c2cc(OC)c(OC)c(OC)c2)c2cc3c(cc2[C@@H](O)[C@@H]1CO)OCO3	770
COc1ccc(S(=O)(=O)N2CCN(c3cnn4c(C)nnc4c3)CC2)cc1	670
CCOc1cc(C(=O)Nc2nc(-c3ccc(OC)cc3)c(C)s2)cc(OCC)c1OCC	1360
Cc1cc2c(cc1CNC(=O)Cn1c(C(F)(F)F)nc3cc4c(cc31)OCCO4)OCCCO2	851
COc1cc(C2C(C(=O)N3CCOCC3)=C(C)NC3=C2C(=O)CCC3)ccc1OC(C)=O (stereo unspecified)	622
CC(=O)NCc1ccc(-c2noc(-c3cc(F)ccc3Cl)n2)s1	879
NCC(O)C1CCCCCCC1 (stereo unspecified)	633
CC(C)n1c(=O)oc2cc(-c3noc(-c4ccc(Br)cc4)n3)ccc21	1350
Cc1noc(C)c1-c1ccc(S(=O)(=O)N2CCC3(CC2)OCCO3)cc1	853
CCC1=C(c2ccc(C)cc2)S(=O)(=O)N=C1N1CCC(C(=O)N2CCOCC2)CC1	780
CCCCn1cnc2c(-c3ccccc3)cn(CC(=O)Nc3ccccc3)c2c1=O	1030
CCN(CC)C(=O)c1ccc2c(c1)N(CC(=O)NC(C)C)C(=O)C1CCCCN21 (stereo unspecified)	735
CCOc1cc(N)c(Cl)cc1C(=O)NCC1CN(Cc2ccc(F)cc2)CCO1 (stereo unspecified)	714
Cc1ccc(NC(=O)N2CCC(c3nc(C(=O)N4CCCC4)c(C)o3)CC2)cc1F	835
COc1ccc(-n2c(CSc3ncccn3)nnc2SCC(=O)NO)cc1	592
O=C(Cc1ccccc1)N1CCN(c2nc(CN3CCOCC3)cs2)CC1	614
NCCC1CCN(C(=O)Nc2cccc(F)c2)CC1	595
CCc1ccccc1NC(=O)Cn1cnc2c(sc3nc(-c4ccccc4)ccc32)c1=O	1030
COC(=O)C(C)NC(=O)N1CCN(c2nc3ccccc3n(Cc3ccccc3)c2=O)CC1 (stereo unspecified)	869
O=C(NCc1ccc(F)cc1)C1CCN(C(=O)c2ncn3c2COC(c2ccc(F)cc2)C3)CC1 (stereo unspecified)	784
COCCCn1cc(C(=O)Nc2cccc(C)n2)c2nn(-c3ccccc3)c(=O)c-2c1	864
Cc1cccc(NC(=O)NC2CCN(c3ccccc3)C2=O)c1 (stereo unspecified)	814
O=C1CCCCC(Cc2ccccc2)(C(=O)Nc2ccc(F)cc2)N1 (stereo unspecified)	818

SMILES	RP-LC retention time [s]
CCCCn1nc2c(S(=O)(=O)N3CCOCC3)cccn2c1=O	702
Cc1cc(NC(=O)CSc2ccc(-n3cccn3)nn2)on1	666
O=C(Nc1ccc(Br)cc1)C1CCCN(c2nccnc2Sc2ccccc2)C1 (stereo unspecified)	1220
Cc1ccc(N2CCC(NC(=O)Nc3ccc(F)cc3)C2=O)cc1 (stereo unspecified)	846
COc1ccc(CNC(=O)c2cc(-c3ccccc3)ns2)cc1	905
CCC(C)NC(=O)CCC(=O)N1CCc2c(c(C(=O)N3CCCC3)nn2C)C1 (stereo unspecified)	617
COc1ccc(NC(=O)CN2C(=O)NC3(CCC(C)CC3)C2=O)cc1OC (stereo unspecified)	720
CCCCc1ccc(NC(=O)N2CC(c3nc(C)no3)C3(CCOCC3)C2)cc1 (stereo unspecified)	914
O=C(Nc1cnc(-c2ccccc2)nc1)c1ccc(Br)o1	979
CCN1c2ccccc2C(=O)NC12CCN(C(=O)c1cc(C)cc(C)c1)CC2	868
COc1cc(OC)c(NC(=O)Cn2c(=O)n(-c3ccc(C)cc3)c(=O)c3c2cc(C)n3C)cc1Cl	904
CCCCNC(=O)CN1C(=O)CC(c2cccs2)=Nc2ccccc21	835
O=C(NC1CC1)c1ccc(OCC2CCN(C(=O)c3c(F)cccc3Cl)CC2)cc1	837
CCOC(=O)c1noc2ncnc(Nc3ccc(C)cc3)c12	1010
COc1cc(C2CC(=O)c3c([nH]c(C(=O)OC4CCCCCC4)c3C)C2)cc(OC)c1OC (stereo unspecified)	1160
CCOC(=O)CC1(NC(=O)NCC(=O)N2CCc3ccccc32)CCCCC1	885
CC1(CNC(=O)c2ccccc2Br)CCOCC1	698
CCCc1noc(-c2cccnc2N2CCCN(Cc3ccccc3)CC2)n1	690
Cc1ccccc1NC(=O)N1CCN(Cc2cn(C)c3ccccc23)CC1	589
Cc1ccccc1CC(=O)N1CCC(c2nc(C(=O)N3CCOCC3)c(C)o2)CC1	616
CCC(=O)Nc1nc(-c2ccc3c(c2)N(C)C(=O)CO3)cs1	752
O=C(CCc1ccccc1)N1CCOc2ccccc2C1	861
CCCCCN1C(=O)C2(NCCc3c2[nH]c2ccc(C)cc32)c2ccccc21 (stereo unspecified)	792
